Data taken from US8926966B1 (Regents of the University of California, priority 1990, dated 2015).

Test system: IDDM associated autoantibodies in sera
Experiment: ELISA of sera on plate-bound human GAD65 peptides
Type: binding
Details: for number of IDDM (at risk, pre-IDDM, at onset) patients positive (X) for the peptide (unlabelled sum line): IDDM sera of Table 11
Experimental: Patient sera and most control sera were those used in a previous study (Kaufman, et al., J. Clin. Investigation, supra) All samples were coded and tested in a blind manner. Peptides were synthesized using an automatic instrument (Applied Biosystems, Foster City, Calif.) and standard conditions. Peptides were dissolved in 60 mM sodium bicarbonate buffer (pH 9.6) at 20 ug/ml and 100 ul of each was added to duplicated wells of a 96 well Nunc-Immuno Plate. Peptides were allowed to bind at 4° C. overnight. The plates were then washed three times with PBS+0.1% Tween 20 (wash buffer), after which the plates were pre-absorbed with 3% BSA in sodium bicarbonate buffer for 0.5 hours at 37° C., or at room temperature overnight. The plates were then washed 5 times with the above wash buffer. 100 ul of serum at a 1/300 dilution in PBS+0.1% Tween 20 and 1% BSA was added to each well and antibodies were allowed to bind for 1 hour at 37° C. The plates were washed 5 times with wash buffer. 100 ul of a 1/600 dilution of HRP-goat anti-human IgG (BRL, Gaithersberg, Md.) was added to each well and allowed to bind for 1 hour at 37° C. The plates were then washed 7 times and 100 ul of substrate buffer was added to each well for 30 minutes at room temperature. The color development was measured at 410 nm using an ELISA plate reader (ICN, Biomedicals, Costa Mesa, Calif.). Positive sera were defined as: OD410 of the sample/negative control ≧3.0.

[1] = IDDM At Onset serum 048, 1/300 dilution
[2] = IDDM At Onset serum 291, 1/300 dilution
[3] = IDDM At Onset serum 705, 1/300 dilution
[4] = IDDM At Onset serum S.H., 1/300 dilution
[5] = IDDM At Risk serum 052, 1/300 dilution
[6] = IDDM At Risk serum 356, 1/300 dilution
[7] = IDDM At Risk serum L.I., 1/300 dilution
[8] = Pre-IDDM serum 723, 1/300 dilution
[9] = Pre-IDDM serum J.A., 1/300 dilution
[10] = Pre-IDDM serum J.B. (1), 1/300 dilution
[11] = Pre-IDDM serum J.B. (2), 1/300 dilution
[12] = Pre-IDDM serum P.T. (1), 1/300 dilution
[13] = Pre-IDDM serum P.T. (2), 1/300 dilution
[14] = Pre-IDDM serum R.S. (1), 1/300 dilution
[15] = Pre-IDDM serum R.S. (2), 1/300 dilution
[16] = control serum 4380, 1/300 dilution
[17] = control serum 5620, 1/300 dilution
[18] = control serum 5748, 1/300 dilution
[19] = control serum A.P., 1/300 dilution
[20] = control serum S.M., 1/300 dilution

With QPPRAAARKAACACDQKPCSC [Peptide 5] the “immunoreactivity by both control and patient sera” value was “often positive”, the “immunoreactivity of serum with GAD65 peptide” value (shortened to “immunoreactivity of serum”) [1] was “X (X = positive for immunoreactivity as defined by 00/background^3.0)” and the “immunoreactivity of serum” value [2] was “X (X = positive for immunoreactivity as defined by 00/background^3.0)”. For the same sequence, the “immunoreactivity of serum” value [3] was “X (X = positive for immunoreactivity as defined by 00/background^3.0)”, the “immunoreactivity of serum” value [4] was “X (X = positive for immunoreactivity as defined by 00/background^3.0)” and the “immunoreactivity of serum” value [5] was “X (X = positive for immunoreactivity as defined by 00/background^3.0)”. The “immunoreactivity of serum” value [6] was “X (X = positive for immunoreactivity as defined by 00/background^3.0)”, the “immunoreactivity of serum” value (IDDM At Risk serum 825, 1/300 dilution) was “X (X = positive for immunoreactivity as defined by 00/background^3.0)” and the “immunoreactivity of serum” value [7] was “X (X = positive for immunoreactivity as defined by 00/background^3.0)”. For the same sequence, the “immunoreactivity of serum” value [8] was “X (X = positive for immunoreactivity as defined by 00/background^3.0)”, the “immunoreactivity of serum” value (Pre-IDDM serum B.Y. (1), 1/300 dilution) was “X (X = positive for immunoreactivity as defined by 00/background^3.0)” and the “immunoreactivity of serum” value (Pre-IDDM serum B.Y. (2), 1/300 dilution) was “X (X = positive for immunoreactivity as defined by 00/background^3.0)”. For the same sequence, the “immunoreactivity of serum” value [9] was “X (X = positive for immunoreactivity as defined by 00/background^3.0)”, the “immunoreactivity of serum” value [10] was “b (b = borderline response (00/background ?2.5-2.9).)” and the “immunoreactivity of serum” value [11] was “X (X = positive for immunoreactivity as defined by 00/background^3.0)”. The “immunoreactivity of serum” value [12] was “X (X = positive for immunoreactivity as defined by 00/background^3.0)”, the “immunoreactivity of serum” value [13] was “X (X = positive for immunoreactivity as defined by 00/background^3.0)” and the “immunoreactivity of serum” value [14] was “X (X = positive for immunoreactivity as defined by 00/background^3.0)”. The “immunoreactivity of serum” value [15] was “X (X = positive for immunoreactivity as defined by 00/background^3.0)”, the “immunoreactivity of serum” value (control serum 1688, 1/300 dilution) was “b (b = borderline response (00/background ?2.5-2.9).)” and the “immunoreactivity of serum” value [16] was “X (X = positive for immunoreactivity as defined by 00/background^3.0)”. The “immunoreactivity of serum” value [17] was “X (X = positive for immunoreactivity as defined by 00/background^3.0)”, the “immunoreactivity of serum” value [18] was “X (X = positive for immunoreactivity as defined by 00/background^3.0)” and the “immunoreactivity of serum” value [19] was “X (X = positive for immunoreactivity as defined by 00/background^3.0)”. For the same sequence, the “immunoreactivity of serum” value (control serum FA2, 1/300 dilution) was “X (X = positive for immunoreactivity as defined by 00/background^3.0)”, the “immunoreactivity of serum” value (control serum FA9, 1/300 dilution) was “X (X = positive for immunoreactivity as defined by 00/background^3.0)” and the “immunoreactivity of serum” value (control serum FA11, 1/300 dilution) was “X (X = positive for immunoreactivity as defined by 00/background^3.0)”. The “immunoreactivity of serum” value (control serum H.B., 1/300 dilution) was “b (b = borderline response (00/background ?2.5-2.9).)”, the “immunoreactivity of serum” value (control serum P.T., 1/300 dilution) was “X (X = positive for immunoreactivity as defined by 00/background^3.0)” and the “immunoreactivity of serum” value [20] was “X (X = positive for immunoreactivity as defined by 00/background^3.0)”.
With CGRHVDVFKLWLMWRAKGTTG [Peptide 30] the “immunoreactivity of serum” value [17] was “b (b = borderline response (00/background ?2.5-2.9).)”.
With SFDRSTKVIDFHYPNELLQE [Peptide 9] the “immunoreactivity by both control and patient sera” value was “often positive”, the “number of control sera positive (X) for the peptide (unlabelled sum line)” value (13 control sera) was 2 and the “immunoreactivity of serum” value [1] was “X (X = positive for immunoreactivity as defined by 00/background^3.0)”. The “immunoreactivity of serum” value [5] was “b (b = borderline response (00/background ?2.5-2.9).)”, the “immunoreactivity of serum” value [6] was “X (X = positive for immunoreactivity as defined by 00/background^3.0)” and the “number of IDDM (at risk, pre-IDDM, at onset) patients positive (X) for the peptide (unlabelled sum line)” value (“number of IDDM” for short) was 3. For the same sequence, the “immunoreactivity of serum” value [8] was “X (X = positive for immunoreactivity as defined by 00/background^3.0)”, the “immunoreactivity of serum” value [12] was “b (b = borderline response (00/background ?2.5-2.9).)” and the “immunoreactivity of serum” value [13] was “b (b = borderline response (00/background ?2.5-2.9).)”. For the same sequence, the “immunoreactivity of serum” value [14] was “b (b = borderline response (00/background ?2.5-2.9).)”, the “immunoreactivity of serum” value [15] was “b (b = borderline response (00/background ?2.5-2.9).)” and the “immunoreactivity of serum” value [16] was “b (b = borderline response (00/background ?2.5-2.9).)”. The “immunoreactivity of serum” value [17] was “b (b = borderline response (00/background ?2.5-2.9).)”, the “immunoreactivity of serum” value [18] was “b (b = borderline response (00/background ?2.5-2.9).)” and the “immunoreactivity of serum” value [19] was “X (X = positive for immunoreactivity as defined by 00/background^3.0)”. The “immunoreactivity of serum” value [20] was “X (X = positive for immunoreactivity as defined by 00/background^3.0)”.
HATDLLPACDGERPTLAFLQ [Peptide 7] was tested, and the “immunoreactivity of serum” value [2] was “b (b = borderline response (00/background ?2.5-2.9).)”, the “immunoreactivity of serum” value [10] was “b (b = borderline response (00/background ?2.5-2.9).)” and the “immunoreactivity of serum” value [11] was “b (b = borderline response (00/background ?2.5-2.9).)”. For the same sequence, the “immunoreactivity of serum” value [13] was “b (b = borderline response (00/background ?2.5-2.9).)”.
In the case of VPLQCSALLVREEGLMQNCNQ [Peptide 27], the “immunoreactivity of serum” value [20] is reported as “b (b = borderline response (00/background ?2.5-2.9).)”.
QNCNQMHASYLFQQDKHYDL [Peptide 28] was tested, and the “immunoreactivity of serum” value [5] was “b (b = borderline response (00/background ?2.5-2.9).)”.
In the case of VNFFRMVISNPAATHQDIDF [Peptide 37], the “immunoreactivity of serum” value [3] is reported as “X (X = positive for immunoreactivity as defined by 00/background^3.0)”, the “number of IDDM” value is reported as 2 and the “immunoreactivity of serum” value [8] is reported as “X (X = positive for immunoreactivity as defined by 00/background^3.0)”.
TNMFTYEIAPVFVLLEYVTL [Peptide 14] was tested, and the “immunoreactivity of serum” value [5] was “b (b = borderline response (00/background ?2.5-2.9).)”.
For QKFTGGIGIGNKLCALLYGD [Peptide 3], the “immunoreactivity of serum” value [1] was “X (X = positive for immunoreactivity as defined by 00/background^3.0)”, the “immunoreactivity of serum” value [2] was “b (b = borderline response (00/background ?2.5-2.9).)” and the “immunoreactivity of serum” value [4] was “X (X = positive for immunoreactivity as defined by 00/background^3.0)”. For the same sequence, the “immunoreactivity of serum” value [7] was “b (b = borderline response (00/background ?2.5-2.9).)” and the “immunoreactivity of serum” value [8] was “X (X = positive for immunoreactivity as defined by 00/background^3.0)”.
GSGDSENPGTARAWCQVAQKFTG [Peptide 2] was tested, and the “immunoreactivity of serum” value [4] was “b (b = borderline response (00/background ?2.5-2.9).)” and the “immunoreactivity of serum” value [5] was “b (b = borderline response (00/background ?2.5-2.9).)”.
For DERGKMIPSDLERRILEAKQ [Peptide 21], the “controls whose sera recognized the peptide” value (13 control sera) was “none”, the “immunoreactivity of serum” value [1] was “X (X = positive for immunoreactivity as defined by 00/background^3.0)” and the “immunoreactivity of serum” value [2] was “X (X = positive for immunoreactivity as defined by 00/background^3.0)”. The “immunoreactivity of serum” value [3] was “X (X = positive for immunoreactivity as defined by 00/background^3.0)”, the “immunoreactivity of serum” value [4] was “X (X = positive for immunoreactivity as defined by 00/background^3.0)” and the “immunoreactivity of serum” value [6] was “X (X = positive for immunoreactivity as defined by 00/background^3.0)”. The “number of IDDM” value was 7, the “immunoreactivity of serum” value [8] was “X (X = positive for immunoreactivity as defined by 00/background^3.0)” and the “immunoreactivity of serum” value [9] was “X (X = positive for immunoreactivity as defined by 00/background^3.0)”. The “immunoreactivity of serum” value [11] was “b (b = borderline response (00/background ?2.5-2.9).)”, the “immunoreactivity of serum” value [12] was “X (X = positive for immunoreactivity as defined by 00/background^3.0)” and the “immunoreactivity of serum” value [13] was “X (X = positive for immunoreactivity as defined by 00/background^3.0)”. For the same sequence, the “immunoreactivity of serum” value [15] was “b (b = borderline response (00/background ?2.5-2.9).)”, the “immunoreactivity of serum” value [20] was “b (b = borderline response (00/background ?2.5-2.9).)” and the “patients whose sera recognized the peptide” value (patients previously shown to be 64K positive) was 6/8.
